Values after ≈ are worked out from the molar mass of the structure shown.

Data set [1] can be described thus: Hygroscopicity / water re-absorption at controlled relative humidity (DVS). In kind it is physicochemical. From the text:
The present invention is directed, inter alia, to crystalline forms of (R)—N-(4-(3-aminopiperidin-1-yl)-5-bromo-1H-pyrrolo[2,3-b]pyridin-3-yl)cyclopropanecarboxamide and salts, hydrates, and solvates thereof. The crystalline forms of the present invention can be identified by unique solid state signatures with respect to, for example, differential scanning calorimetry (DSC), X-ray powder diffraction (XRPD), and other solid state methods. Further characterization with respect to water or solvent content of the crystalline forms of the present invention can be gauged by any of the following methods for example, thermogravimetric analysis (TGA), DSC and the like. For DSC, it is known that the temperatures observed will depend upon sample purity, the rate of temperature change, as well as sample preparation technique and the particular instrument employed. Thus, the values reported herein relating to DSC thermograms can vary by about ±6° C. For desolvation events, DSC thermograms may vary by more than ±6° C. depending on instrument configuration and/or sample quantity. The values reported herein relating to DSC thermograms can also vary by about ±20 joules per gram. For XRPD, the relative intensities of the peaks can vary, depending upon the sample preparation technique, the sample mounting procedure and the particular instrument employed. Moreover, instrument variation and other factors can often affect the 2θ values. Therefore, the peak assignments of diffraction patterns can vary by about ±0.2 ° 2θ. The relative intensities of the reported peaks can also vary. For TGA, the features reported herein can vary by about ±5° C. The TGA features reported herein can also vary by about ±2% weight change due to, for example, sample variation. Further characterization with respect to hygroscopicity of the crystalline form can be gauged by, for example, dynamic vapor sorption (DVS). The DVS features reported herein can vary by about ±5% relative humidity. The DVS features reported herein can also vary by about ±5% weight change.
(R)—N-(4-(3-aminopiperidin-1-yl)-5-bromo-1H-pyrrolo[2,3-b]pyridin-3-yl)cyclopropanecarboxamide di-ethane sulfonic acid salt: (R)—N-(4-(3-aminopiperidin-1-yl)-5-bromo-1H-pyrrolo[2,3-b]pyridin-3-yl)cyclopropanecarboxamide di-ethanesulfonic acid salt hydrate was heated to 130° C. in a DSC apparatus and then cooled to room temperature. […] The physical properties of the non-solvated di-esylate salt of (R)—N-(4-(3-aminopiperidin-1-yl)-5-bromo-1H-pyrrolo[2,3-b]pyridin-3-yl)cyclopropanecarboxamide are summarized in Table 50 below.

A further data set in a line: Aqueous solubility. In kind it is physicochemical.
Data set [2] can be described thus: Neat powder stability under ambient (25° C./60% RH) and accelerated (40° C./75% RH) conditions. In kind it is physicochemical. The procedure: (§1) Chemical characteristics of (R)—N-(4-(3-aminopiperidin-1-yl)-5-bromo-1H-pyrrolo[2,3-b]pyridin-3-yl)cyclopropanecarboxamide free base (Form A) and maleate salt crystal forms: The stability of the crystal forms described in Examples 4 and 27 was measured neat as well as in a Powder-in-Capsule (PiC) formulation. The stability as neat powder was measured over a period of 1-year for the free base and 3-months for the maleate salt, under ambient (25° C./60% RH) and accelerated (40° C./75% RH) conditions. […] It should be noted that the maleate salt used in the neat powder stability study contained high levels (˜9% wt./wt.) of residual tetrahydrofuran (THF). The PiC stability using 15 mg of (R)—N-(4-(3-aminopiperidin-1-yl)-5-bromo-1H-pyrrolo[2,3-b]pyridin-3-yl)cyclopropanecarboxamide in Size 0 hard gelatin capsules was carried out over a period of 2-months at 5° C., ambient and accelerated conditions.

Data set [3] can be described thus: Powder-in-Capsule (PiC) formulation stability. The note with it: 15 mg in Size 0 hard gelatin capsules, 2-months at 5° C., ambient and accelerated conditions. In kind it is physicochemical. On the procedure: as §1
The nature of data set [4]: Abbreviated excipient compatibility study at 50° C. with 20% H2O added. In kind it is physicochemical. The note with it: 4 weeks, common diluents and disintegrants. The procedure:
To further investigate the chemical properties of these crystal forms, an abbreviated excipient compatibility study was run at 50° C. with 20% H2O added. The excipients used in the study consisted of common diluents and disintegrants and the study was conducted over a period of 4 weeks.

The nature of data set [5]: Oral absorption of PiC formulations versus solution, preclinical pharmacokinetic study. In kind it is in vivo. As to conditions: canines, 3 mg/kg, crossover. On the procedure: Biological characteristics of (R)—N-(4-(3-aminopiperidin-1-yl)-5-bromo-1H-pyrrolo[2,3-b]pyridin-3-yl)cyclopropanecarboxamide free base (Form A) and maleate salt crystal forms: The oral absorption of the crystal forms described in Examples 4 and 27 as PiC formulations was investigated in a preclinical pharmacokinetic study conducted in canines using a reduced Latin square crossover design at 3 mg/kg to compare the solid formulations to a solution of (R)—N-(4-(3-aminopiperidin-1-yl)-5-bromo-1H-pyrrolo[2,3-b]pyridin-3-yl)cyclopropanecarboxamide.

`Cl.Cl.N[C@@H]1CCCN(c2c(Br)cnc3[nH]cc(NC(=O)C4CC4)c23)C1` [Example 29, (R)—N-(4-(3-aminopiperidin-1-yl)-5-bromo-1H-pyrrolo[2,3-b]pyridin-3-yl)cyclopropanecarboxamide di-HCl salt]: in data set [1] (above 80% RH), the DVS form conversion result is given as “dihydrate form above 80% RH”. Besides, the DVS hygroscopicity entry in data set [1] (below 80% RH) is “Non-hygroscopic below 80% RH. Converts to a crystalline”.

Regarding `Br.Br.N[C@@H]1CCCN(c2c(Br)cnc3[nH]cc(NC(=O)C4CC4)c23)C1` [Example 30, (R)—N-(4-(3-aminopiperidin-1-yl)-5-bromo-1H-pyrrolo[2,3-b]pyridin-3-yl)cyclopropanecarboxamide di-HBr salt], the DVS hygroscopicity entry in data set [1] (below 80% RH) is recorded as “Non-hygroscopic below 80% RH. Upon desorption the solids”.

In the case of `N[C@@H]1CCCN(c2c(Br)cnc3[nH]cc(NC(=O)C4CC4)c23)C1` [Form A, (R)—N-(4-(3-aminopiperidin-1-yl)-5-bromo-1H-pyrrolo[2,3-b]pyridin-3-yl)cyclopropanecarboxamide Form A], the solubility in the data set “Aqueous solubility” (0.1N HCl, simulated gastric fluid) is 49900 µg/mL (≈ 132 mM); in the data set “Aqueous solubility” (FasSIF pH 6.8), 2400 µg/mL (≈ 6.34 mM); in the data set “Aqueous solubility” (fessif, FedSIF pH 5), 10200 µg/mL (≈ 27 mM); in “Aqueous solubility” (water, H2O) it was 120 µg/mL (≈ 0.317 mM). Besides, the “Stability as neat powder” value in data set [2] (1-year, ambient (25° C./60% RH) and accelerated (40° C./75% RH)) is listed as “very good stability with no chiral or achiral degradation observed under any condition”. In data set [3], the PiC stability result is “did not cause any significant physical or chemical degradation”. Also, the Degradation with excipients result in data set [4] (listed as free base) is “significant degradation with lactose and Ac-Di-Sol® (croscarmellose sodium)”; in data set [4] (listed as free base Form A) it was “more stable with excipients than the maleate salt”. Moreover, the Oral absorption result in data set [5] is recorded as “no significant differences in absorption”.

Turning to `CCS(=O)(=O)O.CCS(=O)(=O)O.N[C@@H]1CCCN(c2c(Br)cnc3[nH]cc(NC(=O)C4CC4)c23)C1` [anhydrate, (R)—N-(4-(3-aminopiperidin-1-yl)-5-bromo-1H-pyrrolo[2,3-b]pyridin-3-yl)cyclopropanecarboxamide di-ethane sulfonic acid salt], the Water re-absorption result in data set [1] (80% RH) is reported as “re-absorbs water at 80% RH”.

For `N[C@@H]1CCCN(c2c(Br)cnc3[nH]cc(NC(=O)C4CC4)c23)C1.O=C(O)/C=C\C(=O)O` [maleate salt, Maleic acid salt of (R)—N-(4-(3-aminopiperidin-1-yl)-5-bromo-1H-pyrrolo[2,3-b]pyridin-3-yl)cyclopropanecarboxamide], the “Aqueous Solubility” value in “Aqueous solubility” (at pH ≦7) is greater than 10 at pH ≦7 mg/mL. The “Stability as neat powder” value in data set [2] (3-months, ambient and accelerated conditions, material contained ~9% wt./wt. residual THF) is recorded as “very slight degradation under accelerated conditions”. Further, the PiC stability result in data set [3] is given as “stable”. For the same compound, the Degradation with excipients entry in data set [4] is on record as “significant degradation with all excipients investigated”. The Oral absorption entry in data set [5] is listed as “no significant differences in absorption”. Moreover, in data set [1] (at 80% RH), the DVS hygroscopicity entry is listed as “Non-hygroscopic” and the DVS weight gain was 0.3 % wt./wt.

The values above are taken from US20160251350A1, “CRYSTALLINE FORMS OF A PYRROLOPYRIDINE COMPOUND” (Genentech, Inc., priority 2015, published 2016).
